In patent US20040037799A1, “Malodor suppression by fragrance composition” (priority 2002, published 2004):

Experiments:
[1] = Malodor coverage by individual fragrance materials (Table 1)
[2] = Air diffusion coefficient of perfume materials; assay type: physicochemical

With `CC(=O)C1(C)CC2=C(CCCC2(C)C)CC1C` (stereo not shown) [ISO E SUPER] the “Average Coverage” value ([1]; scale not defined) was 3.3 and the Air Diffusion Coefficient [2] was 0.0418 cm²/s.

For “METHYL NAPTHYL KETONE [METHYL NAPTHYL KETONE 10%]”, the “Average Coverage” value ([1]; scale not defined) was 2.0 and the Air Diffusion Coefficient [2] was 0.0552 cm²/s.

With `C[C@@H]1CC[C@H]2C(C)(C)[C@H]3C[C@@]12CC[C@@]3(C)O` [CEDROL LIQUID 10%, CEDROL] the “Average Coverage” value ([1]; scale not defined) was 3.3 and the Air Diffusion Coefficient [2] was 0.0425 cm²/s.

In the case of `CCCCCCCCCCC=CC#N`, the “Average Coverage” value ([1]; scale not defined) is reported as 3.0 and the Air Diffusion Coefficient [2] is reported as 0.0432 cm²/s.

In the case of `C=CCc1ccc(OC)cc1` [METHYL CHAVICOL], the “Average Coverage” value ([1]; scale not defined) is reported as 2.3 and the Air Diffusion Coefficient [2] is reported as 0.0591 cm²/s.

With `COC(Cc1ccccc1)OC` [PADMA] the “Average Coverage” value ([1]; scale not defined) was 3.3 and the Air Diffusion Coefficient [2] was 0.0571 cm²/s.

For `CC(C=O)Cc1ccc(C(C)(C)C)cc1` (stereo not shown) [LILIAL], the “Average Coverage” value ([1]; scale not defined) was 2.6 and the Air Diffusion Coefficient [2] was 0.047 cm²/s.

In the case of `CC(C)C1CCC(CO)CC1` (stereo not shown) [MAYOL], the “Average Coverage” value ([1]; scale not defined) is reported as 2.3 and the Air Diffusion Coefficient [2] is reported as 0.0545 cm²/s.

In the case of `CC1=CCC2C3CC(C2C1)C1(C3)OC1C` (stereo not shown) [RHUBOFIX], the “Average Coverage” value ([1]; scale not defined) is reported as 3.0.

For `CC(=O)OCC=C(C)C` [PRENYL ACETATE], the “Average Coverage” value ([1]; scale not defined) was 1.0 and the Air Diffusion Coefficient [2] was 0.0649 cm²/s.

With `CC(C)CCOCCc1ccccc1` [ANTHER] the “Average Coverage” value ([1]; scale not defined) was 2.6 and the Air Diffusion Coefficient [2] was 0.0486 cm²/s.

For `CC(C)OCCc1ccccc1` [PETIOLE], the “Average Coverage” value ([1]; scale not defined) was 2.6.

In the case of `CCc1ccc(CC(C)(C)C=O)cc1` [FLORAZONE], the “Average Coverage” value ([1]; scale not defined) is reported as 3.6 and the Air Diffusion Coefficient [2] is reported as 0.0499 cm²/s.

For `CC1CCC(C(C)(C)O)CC1` (stereo not shown) [DIHYDRO TERPINEOL], the “Average Coverage” value ([1]; scale not defined) was 2.0 and the Air Diffusion Coefficient [2] was 0.0547 cm²/s.

In the case of `C=CCOC(=O)CCCCCC` [ALLYL HEPTOATE (C-7), ALLYL HEPTOATE], the “Average Coverage” value ([1]; scale not defined) is reported as 2.6 and the Air Diffusion Coefficient [2] is reported as 0.0523 cm²/s.

With `c1ccc(CCOC2CCCCC2)cc1` the “Average Coverage” value ([1]; scale not defined) was 2.3 and the Air Diffusion Coefficient [2] was 0.0477 cm²/s.

With `CCCCCCC(C=O)=Cc1ccccc1` [HEXYL CINNAMIC ALDEHYDE] the “Average Coverage” value ([1]; scale not defined) was 2.3 and the Air Diffusion Coefficient [2] was 0.0445 cm²/s.

`O=Cc1ccccc1` [BENZALDEHYDE] gave an Air Diffusion Coefficient [2] of 0.075 cm²/s.

For METHYL IONONE GAMMA, the “Average Coverage” value ([1]; scale not defined) was 3.3 and the Air Diffusion Coefficient [2] was 0.0453 cm²/s.

For `COc1ccc2ccccc2c1` [NEROLIN YARA YARA 10%], the “Average Coverage” value ([1]; scale not defined) was 2.6.

With `OCCc1ccccc1` [PHENYL ETHYL ALCOHOL] the “Average Coverage” value ([1]; scale not defined) was 4.3 and the Air Diffusion Coefficient [2] was 0.0676 cm²/s.

With `CC/C(=C\CC1CC=C(C)C1(C)C)CO` (stereo not shown) [SANDRANOL] the “Average Coverage” value ([1]; scale not defined) was 3.3 and the Air Diffusion Coefficient [2] was 0.0444 cm²/s.

For `C=C1C2CCC(C2)C1(C)C` (stereo not shown), the “Average Coverage” value ([1]; tested only at 5 and 38 C) was 3.0 and the Air Diffusion Coefficient [2] was 0.0613 cm²/s.

For `CCOC(=O)CC(C)=O` [ETHYL ACETOACETATE], the “Average Coverage” value ([1]; scale not defined) was 1.6 and the Air Diffusion Coefficient [2] was 0.0554 cm²/s.

For `CO[C@]1(C)CC[C@@]23C[C@@H]1C(C)(C)[C@@H]2CC[C@H]3C` [CEDRAMBER], the “Average Coverage” value ([1]; scale not defined) was 2.3.

In the case of `CC(=O)c1cc2c(cc1C)C(C)(C)C(C)CC2(C)C` (stereo not shown) [TONALID 10%], the “Average Coverage” value ([1]; scale not defined) is reported as 2.0.

In the case of `C=CCOC(=O)CCC1CCCCC1` [ALLYL CYCLOHEXYL PROPIONATE], the “Average Coverage” value ([1]; scale not defined) is reported as 2.6 and the Air Diffusion Coefficient [2] is reported as 0.0486 cm²/s.

In the case of `CC(=O)OC/C=C(\C)CCC=C(C)C` [GERANYL ACETATE], the “Average Coverage” value ([1]; scale not defined) is reported as 1.0 and the Air Diffusion Coefficient [2] is reported as 0.0478 cm²/s.

In the case of `CC(C)CC1CC(C)(O)CCO1` (stereo not shown) [FLOROL], the “Average Coverage” value ([1]; scale not defined) is reported as 3.0 and the Air Diffusion Coefficient [2] is reported as 0.0521 cm²/s.

In the case of `CCCCCCCCCCCC#N` [CLONAL], the “Average Coverage” value ([1]; scale not defined) is reported as 3.0 and the Air Diffusion Coefficient [2] is reported as 0.0466 cm²/s.

For `OCCC1CCCCC1` [CYCLOHEXYL ETHANOL], the “Average Coverage” value ([1]; scale not defined) was 2.0 and the Air Diffusion Coefficient [2] was 0.0629 cm²/s.

In the case of `CCCCCC1CCCC1=O` (stereo not shown) [DELPHONE, FIRMENICH], the “Average Coverage” value ([1]; scale not defined) is reported as 4.0 and the Air Diffusion Coefficient [2] is reported as 0.0546 cm²/s.

For `CCC(C)(O)CCCC(C)C` (stereo not shown) [TETRAHYDRO LINAILOOL], the “Average Coverage” value ([1]; scale not defined) was 2.6 and the Air Diffusion Coefficient [2] was 0.0533 cm²/s.

In the case of `CC1CC(C)(c2ccccc2)CO1` (stereo not shown) [RHUBAFURAN], the “Average Coverage” value ([1]; scale not defined) is reported as 2.6.

With `CC(=O)O[C@@H]1C[C@H]2CC[C@]1(C)C2(C)C` (racemic) [ISO BORNYL ACETATE] the “Average Coverage” value ([1]; scale not defined) was 2.6 and the Air Diffusion Coefficient [2] was 0.0492 cm²/s.

In the case of `CCCCCC1(C)CCC(C)(C)C1=O` (stereo not shown) [VELOUTONE], the “Average Coverage” value ([1]; scale not defined) is reported as 3.0 and the Air Diffusion Coefficient [2] is reported as 0.0459 cm²/s.

In the case of `CC(C)=CCCC(C)C=O` (stereo not shown) [MELONAL], the “Average Coverage” value ([1]; scale not defined) is reported as 2.0 and the Air Diffusion Coefficient [2] is reported as 0.0579 cm²/s.
